Source: patent publication US20080124718A1, “METHODS OF DIAGNOSING, PREDICTING THERAPEUTIC EFFICACY AND SCREENING FOR NEW THERAPEUTIC AGENTS FOR LEUKEMIA” (Panacea Pharmaceuticals, Inc., priority 2006, published 2008)
Where a name gives a salt, the structure may show the parent alone.

How the values were obtained:
[1] = test system: human aspartyl (asparaginyl) β-hydroxylase (HAAH) mRNA expression; assay: HAAH mRNA expression (qRT-PCR) in patient leukocytes cultured with or without imatinib; type: cell-based; conditions: 1 μM imatinib, 24 hours, vs untreated cells
From the text: This assay procedure allows the quantitative comparison of test RNA to a standard curve using single tube TaqMan® reactions.
Analyze as described in Perkin Elmer sequence detection system manual. A standard amplification curve of ASPH-B was obtained previously, to which unknown samples are compared to obtain the number of copies of HAAH mRNA in the sample.
Patient leukocytes were isolated from patient blood samples and grown in culture in the presence or absence of imatinib mesylate. After overnight incubation, qRT-PCR was used to determine human aspartyl (asparaginyl) β-hydroxylase (HAAH) mRNA expression in both treated and untreated cells. Percentage decrease in mRNA expression level is determined by comparing expression levels in treated vs. non-treated leukocytes from each individual patient.
[…]. This percentage change is consistent with a prediction of sensitivity to imatinib mesylate, based on numerous studies done by the present inventors. […].

[2] = test system: gastrointestinal stromal tumor (GIST) cells, which express an activating c-kit mutation; conditions: in vitro; cited from earlier work

**Q.** Which “decrease in HAAH expression after culture in the presence of imatinib” value ([1]; leukocytes of 27 CML patients (later responders)) does the source give for `Cc1ccc(NC(=O)c2ccc(CN3CCN(C)CC3)cc2)cc1Nc1nccc(-c2cccnc2)n1` [imatinib, Imatinib mesylate] here?
**A.** 30-75%

**Q.** And the “reduction in HAAH transcript levels after culture in the presence of imatinib” value ([1]; leukocytes of the 12 other CML patients (non-responders))?
**A.** < 25%

**Q.** And the apoptosis [2]?
**A.** induces apoptosis

**Q.** What about the proliferation [2] of the same compound?
**A.** inhibits proliferation
